This note sets out measurements from PubChem BioAssay AID1259407 (Chemical Carcinogenesis Research Information System (CCRIS), 2018).

This data set concerns CCRIS mutagenicity, Ames/micronucleus/aberration tests. Description: CCRIS mutagenicity studies.
Where [1] appears, read: Test System: AMES SALMONELLA TYPHIMURIUM, Strain/Indicator: TA98, Metabolic Activation: NONE, Method: PREINCUBATION
Where [2] appears, read: Test System: AMES SALMONELLA TYPHIMURIUM, Strain/Indicator: TA100, Metabolic Activation: NONE, Method: PREINCUBATION
The mark [3] stands for this setting: Test System: AMES SALMONELLA TYPHIMURIUM, Strain/Indicator: TA1535, Metabolic Activation: NONE, Method: PREINCUBATION
Where [4] appears, read: Test System: AMES SALMONELLA TYPHIMURIUM, Strain/Indicator: TA1537, Metabolic Activation: NONE, Method: PREINCUBATION

SMILES strings stand for the structures. Activity calls are given as the source filed them. The rule behind the calls is not given here.

With `C=CCOC(=O)CC(C)C`, the mutagenic call is “inactive; negative” (End Point: IN VITRO CHROMOSOMAL ABERRATIONS, Test System: CHO CELLS, Metabolic Activation: NONE); “inactive; negative” (Test System: AMES SALMONELLA TYPHIMURIUM, Strain/Indicator: TA98, Metabolic Activation: HAMSTER, LIVER, S-9, AROCLOR 1254, Method: PREINCUBATION); “inactive; negative” under setting [1]; “inactive; negative” (Test System: AMES SALMONELLA TYPHIMURIUM, Strain/Indicator: TA98, Metabolic Activation: RAT, LIVER, S-9, AROCLOR 1254, Method: PREINCUBATION); “inactive; negative” (Test System: AMES SALMONELLA TYPHIMURIUM, Strain/Indicator: TA100, Metabolic Activation: HAMSTER, LIVER, S-9, AROCLOR 1254, Method: PREINCUBATION); “inactive; negative” under setting [2]. In addition, the mutagenic call is “inactive; negative” (Test System: AMES SALMONELLA TYPHIMURIUM, Strain/Indicator: TA100, Metabolic Activation: RAT, LIVER, S-9, AROCLOR 1254, Method: PREINCUBATION); “inactive; negative” (Test System: AMES SALMONELLA TYPHIMURIUM, Strain/Indicator: TA1535, Metabolic Activation: HAMSTER, LIVER, S-9, AROCLOR 1254, Method: PREINCUBATION); “inactive; negative” under setting [3]; “inactive; negative” (Test System: AMES SALMONELLA TYPHIMURIUM, Strain/Indicator: TA1535, Metabolic Activation: RAT, LIVER, S-9, AROCLOR 1254, Method: PREINCUBATION); “inactive; negative” (Test System: AMES SALMONELLA TYPHIMURIUM, Strain/Indicator: TA1537, Metabolic Activation: HAMSTER, LIVER, S-9, AROCLOR 1254, Method: PREINCUBATION); “inactive; negative” under setting [4]. For the same compound, the mutagenic call (Test System: AMES SALMONELLA TYPHIMURIUM, Strain/Indicator: TA1537, Metabolic Activation: RAT, LIVER, S-9, AROCLOR 1254, Method: PREINCUBATION) is “inactive; negative”.
On to `[O]=[U](=[O])=[O]`, for which the mutagenic call (Test System: Human bronchial epithelial (BEP2D) cells, Metabolic Activation: None, Method: Morphological transformation) was “active; positive. depleted uranium transformed cell lines exhibited significant chromoso”.
With `O=C1NC(=O)C(Cl)(Cl)C1=C(Cl)Cl`, the mutagenic call (Test System: AMES SALMONELLA TYPHIMURIUM, Strain/Indicator: TA100, Metabolic Activation: NONE, Method: STANDARD PLATE) is “active; positive”.
Consider `Cc1ccccc1N=Nc1ccc(N(C)C)cc1`, for which the mutagenic call is “inactive; negative” (Test System: AMES SALMONELLA TYPHIMURIUM, Strain/Indicator: TA98, Metabolic Activation: HAMSTER, LIVER, S-9, AROCLOR 1254 (10%), Method: PREINCUBATION); “inactive; negative” under setting [1]; “inactive; negative” (Test System: AMES SALMONELLA TYPHIMURIUM, Strain/Indicator: TA98, Metabolic Activation: RAT, LIVER, S-9, AROCLOR 1254 (10%), Method: PREINCUBATION); “inactive; negative” (Test System: AMES SALMONELLA TYPHIMURIUM, Strain/Indicator: TA100, Metabolic Activation: HAMSTER, LIVER, S-9, AROCLOR 1254 (10%), Method: PREINCUBATION); “inactive; negative” under setting [2]; “inactive; negative” (Test System: AMES SALMONELLA TYPHIMURIUM, Strain/Indicator: TA100, Metabolic Activation: RAT, LIVER, S-9, AROCLOR 1254 (10%), Method: PREINCUBATION). Besides, the mutagenic call is “inactive; negative” (Test System: AMES SALMONELLA TYPHIMURIUM, Strain/Indicator: TA1535, Metabolic Activation: HAMSTER, LIVER, S-9, AROCLOR 1254 (10%), Method: PREINCUBATION); “inactive; negative” under setting [3]; “inactive; negative” (Test System: AMES SALMONELLA TYPHIMURIUM, Strain/Indicator: TA1535, Metabolic Activation: RAT, LIVER, S-9, AROCLOR 1254 (10%), Method: PREINCUBATION); “inactive; negative” (Test System: AMES SALMONELLA TYPHIMURIUM, Strain/Indicator: TA1537, Metabolic Activation: HAMSTER, LIVER, S-9, AROCLOR 1254 (10%), Method: PREINCUBATION); “inactive; negative” under setting [4]; “inactive; negative” (Test System: AMES SALMONELLA TYPHIMURIUM, Strain/Indicator: TA1537, Metabolic Activation: RAT, LIVER, S-9, AROCLOR 1254 (10%), Method: PREINCUBATION). Also, the mutagenic call is “inactive; negative” (Test System: E. COLI, Strain/Indicator: WP2 UVRA, Metabolic Activation: HAMSTER, LIVER, S-9, AROCLOR 1254, Method: STANDARD PLATE); “inactive; negative” (Test System: E. COLI, Strain/Indicator: WP2 UVRA, Metabolic Activation: HAMSTER, LIVER, S-9, Method: STANDARD PLATE); “inactive; negative” (Test System: E. COLI, Strain/Indicator: WP2 UVRA, Metabolic Activation: MOUSE, LIVER, S-9, AROCLOR 1254, Method: STANDARD PLATE); “inactive; negative” (Test System: E. COLI, Strain/Indicator: WP2 UVRA, Metabolic Activation: MOUSE, LIVER, S-9, Method: STANDARD PLATE); “inactive; negative” (Test System: E. COLI, Strain/Indicator: WP2 UVRA, Metabolic Activation: NONE, Method: STANDARD PLATE); “inactive; negative” (Test System: E. COLI, Strain/Indicator: WP2 UVRA, Metabolic Activation: RAT, LIVER, S-9, AROCLOR 1254, Method: STANDARD PLATE). Moreover, the mutagenic call (Test System: E. COLI, Strain/Indicator: WP2 UVRA, Metabolic Activation: RAT, LIVER, S-9, Method: STANDARD PLATE) is “inactive; negative”.
Take `CC(=O)Nc1ccc(N/N=C2/C(=O)c3ccc(NC(=O)Nc4ccc5c(c4)C=C(S(=O)(=O)O)/C(=N/Nc4ccccc4)C5=O)cc3C=C2S(=O)(=O)O)cc1`: the mutagenic call (Test System: Ames Salmonella typhimurium, Strain/Indicator: TA98, Metabolic Activation: None, Method: Preincubation) is “active; positive”.
Turning to `CCN(CC)c1cc(NC(C)=O)c(N=Nc2c(Cl)cc([N+](=O)[O-])cc2[N+](=O)[O-])cc1OC`, under “End Point: IN VITRO CHROMOSOMAL ABERRATIONS, Test System: CHL CELLS, Metabolic Activation: RAT, LIVER, S-9, SODIUM PHENOBARBITAL AND 5,6-BENZOFLAVONE”, the mutagenic call was “inactive; negative”.
